Measurements: patent US20210188897A1, “NEUROACTIVE STEROIDS AND COMPOSITIONS AND METHODS THEREOF” (Sparx Therapeutics, Inc., priority 2019, published 2021)
Like-named read-outs stand apart in the source and are kept apart here.

Experiments:
α1β2γ2 GABAA receptors = biological target: T1, α1β2γ2 GABAA receptors (Homo sapiens, UniProt P14867+P47870); assay: GABAAR modulator FLIPR assay (membrane potential), α1β2γ2; format: cell-based
T1 construct: expressed in transfected cells; host or cells: 293T cells (ATCC-CRL-1573)
Procedure: (§1) 293T cells (ATCC-CRL-1573) were applied for transient expression of α1β2γ2 or α1β2δ GABAA receptors. Cells were plated in a 96 well plate with a confluence of about 70%-80% and cultured overnight in complete medium without antibiotics. The α1β2γ2 or α1β2δ subunits were transfected via the lipofectamine method. The FLIPR assay was developed to quantitatively assess the compounds' PAM activity in α1β2γ2 and α1β2δ GABAA receptors. The FLIPR assays were conducted 48 h post-transfection. The FLIPR reagents were purchased from Molecular Devices Corporation (Membrane potential red kit, Catalog number R8126). The FMP-Red-Dye was reconstituted to 1× assay buffer. Growth medium was removed from the wells and cells were loaded with 100 μL FMP-Red-Due solution for 30 minutes in the dark at r.t. After dye loading, each plate was transferred to the FLIPR Tetra Station: the dye was excited at 510-545 nm, and the fluorescence signals were recorded at 565-625 nm. Baseline recordings were acquired for 1 minute. FMP-Red-Dye is a slow-response, potential sensitive probe and the maximal response is usually seen within 2 minutes after triggering cellular depolarization or hyperpolarization. After baseline recording, the different doses of compound solutions were firstly added on cells and the fluorescent signals were recorded for 5 minutes. Then the cells were followed by a second addition with ligand GABA solution and recorded for another 3.5 minutes. Cell responses were calculated as ΔF=Fmax−Fmin, where Fmax was the maximum response in arbitrary fluorescence units, and Fmin was the baseline arbitrary fluorescence unit value.

α1β2δ GABAA receptors = biological target: T2, α1β2δ GABAA receptors (Homo sapiens, UniProt P14867+P47870); assay: GABAAR modulator FLIPR assay (membrane potential), α1β2δ; format: cell-based
T2 construct: expressed in transfected cells; host or cells: 293T cells (ATCC-CRL-1573)
T2 sequence (P14867 28-456): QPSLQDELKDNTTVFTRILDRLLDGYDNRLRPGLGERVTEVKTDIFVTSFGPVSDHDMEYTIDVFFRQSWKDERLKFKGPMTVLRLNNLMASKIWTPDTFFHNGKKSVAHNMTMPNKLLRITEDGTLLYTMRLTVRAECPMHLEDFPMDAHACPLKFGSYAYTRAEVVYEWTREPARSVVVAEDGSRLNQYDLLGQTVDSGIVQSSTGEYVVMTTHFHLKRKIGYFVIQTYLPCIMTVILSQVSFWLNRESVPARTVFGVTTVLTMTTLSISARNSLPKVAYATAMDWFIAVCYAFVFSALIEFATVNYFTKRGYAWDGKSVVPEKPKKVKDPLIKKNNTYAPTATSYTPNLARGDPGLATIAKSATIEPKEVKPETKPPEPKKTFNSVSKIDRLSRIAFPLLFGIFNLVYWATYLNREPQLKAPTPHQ
T2 sequence (P47870 25-512 limits assumed): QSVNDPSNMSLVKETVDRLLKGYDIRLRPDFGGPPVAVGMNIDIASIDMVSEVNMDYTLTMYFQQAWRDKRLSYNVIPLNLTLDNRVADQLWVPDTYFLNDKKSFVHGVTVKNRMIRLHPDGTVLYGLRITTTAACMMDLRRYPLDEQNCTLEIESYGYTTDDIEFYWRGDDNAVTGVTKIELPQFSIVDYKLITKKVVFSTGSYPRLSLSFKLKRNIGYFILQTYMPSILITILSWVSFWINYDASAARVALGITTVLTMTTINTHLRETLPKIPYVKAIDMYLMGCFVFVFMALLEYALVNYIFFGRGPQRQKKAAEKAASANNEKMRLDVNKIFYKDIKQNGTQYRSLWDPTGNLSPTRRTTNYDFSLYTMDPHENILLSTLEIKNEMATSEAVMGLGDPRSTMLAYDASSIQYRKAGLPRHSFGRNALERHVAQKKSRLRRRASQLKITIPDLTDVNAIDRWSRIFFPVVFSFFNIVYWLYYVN
T2 sequence (O14764 17-452 partner limits assumed): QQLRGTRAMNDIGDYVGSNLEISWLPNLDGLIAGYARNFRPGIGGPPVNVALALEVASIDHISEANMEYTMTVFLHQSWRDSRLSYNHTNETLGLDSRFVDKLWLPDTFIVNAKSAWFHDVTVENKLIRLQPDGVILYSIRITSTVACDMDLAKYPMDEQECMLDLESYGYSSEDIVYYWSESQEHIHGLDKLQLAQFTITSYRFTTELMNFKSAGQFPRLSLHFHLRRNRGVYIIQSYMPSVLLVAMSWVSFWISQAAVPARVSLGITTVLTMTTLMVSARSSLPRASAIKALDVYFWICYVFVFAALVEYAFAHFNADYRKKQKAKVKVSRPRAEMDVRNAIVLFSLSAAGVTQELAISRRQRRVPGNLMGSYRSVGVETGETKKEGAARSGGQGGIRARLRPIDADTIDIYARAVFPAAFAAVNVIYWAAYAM
Procedure: as §1

5XFAD and wild type mice [1] = assay: Open field test; format: in vivo; details: 9-month old 5XFAD and wild type mice, 20 mg/kg oral gavage, 45 minutes post dosing; FIG. 2
Procedure: 9-month old 5XFAD transgenic mice (expressing human APP and PSEN1 transgenes with 5 AD-linked mutations) and wild type litermates (C57/B16) were dosed as at 20 mg/kg via oral gavage. The total distance travelled was recorded in an open field chamber 45 minutes post dosing.

5XFAD and wild type mice [2] = assay: Forced swim test; format: in vivo; details: 9-month old 5XFAD and wild type mice, 20 mg/kg oral gavage, 45 minutes post dosing; FIG. 3
Procedure: 9-month old 5XFAD transgenic mice (expressing human APP and PSEN1 transgenes with 5 AD-linked mutations) and wild type litermates (C57/B16) were dosed as at 20 mg/kg via oral gavage. The cognitive and mood behavioral tests were performed 45 minutes post dosing.
The forced swim test is a test for depression-like behavior in rodents. The assay involves observing a mouse stay afloat in a tank of water and monitoring how much time it spends immobile.

[3] = 293T cells transiently expressing α1β2γ2 GABAA receptors, FLIPR, PAM activity, read-out: EC50 in α1β2γ2/293T
[4] = 293T cells transiently expressing α1β2δ GABAA receptors, FLIPR, PAM activity, read-out: EC50 in α1β2δ/293T

T1 sequence (P18507 40-475 partner, one chain of several): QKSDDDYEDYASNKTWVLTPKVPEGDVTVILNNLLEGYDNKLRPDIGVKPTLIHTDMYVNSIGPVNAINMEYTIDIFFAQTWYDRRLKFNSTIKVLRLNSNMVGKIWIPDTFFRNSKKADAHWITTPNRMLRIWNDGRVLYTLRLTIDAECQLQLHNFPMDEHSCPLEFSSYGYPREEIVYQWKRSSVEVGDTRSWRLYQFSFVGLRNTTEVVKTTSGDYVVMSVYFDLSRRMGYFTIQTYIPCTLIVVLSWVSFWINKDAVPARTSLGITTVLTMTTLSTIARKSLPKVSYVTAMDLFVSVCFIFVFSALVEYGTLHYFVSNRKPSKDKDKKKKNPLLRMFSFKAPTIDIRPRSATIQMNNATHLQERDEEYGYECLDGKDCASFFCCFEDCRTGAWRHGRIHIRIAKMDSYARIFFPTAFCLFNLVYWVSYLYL

SMILES | EC50 (α1β2γ2 GABAA receptors; [3]) | EC50 (α1β2δ GABAA receptors; [4]) | locomotor functions (total distance travelled in open field chamber) (5XFAD and wild type mice [1]) | efficacy in forced swim test (time immobile, depression-like behavior) (5XFAD and wild type mice [2]) | EC50 (α1β2γ2 GABAA receptors) | EC50 (α1β2δ GABAA receptors)
C[C@@]1(O)CC[C@H]2[C@H](CC[C@@H]3[C@@H]2CC(F)(F)[C@]2(C)[C@@H](C#N)CC[C@@H]32)C1 [Example 4, (3R,5R,8R,9R,10S,13S,14S,17S)-12,12-difluoro-3-hydroxy-3,13-dimethylhexadecahydro-1H-cyclopenta[a]phenanthrene-17-carbonitrile] | 2950 nM | 710 nM |  |  |  | 
C=C1C[C@H]2[C@@H](CC[C@@H]3C[C@](C)(O)CC[C@@H]32)[C@@H]2CC[C@H](C(C)=O)[C@@]12C [Example 2, 1-((3R,5R,8R,9R,10S,13S,14S,17S)-3-hydroxy-3,13-dimethyl-12-methylenehexadecahydro-1H-cyclopenta[a]phenanthren-17-yl)ethan-1-one] | 280 nM | 98 nM |  |  |  | 
C[C@@]1(O)CC[C@H]2[C@H](CC[C@@H]3[C@@H]2CC(F)(F)[C@]2(C)[C@@H](C(=O)Cn4cc(F)cn4)CC[C@@H]32)C1 [Example 7, 1-((3R,5R,8R,9R,10S,13S,14S,17S)-12,12-difluoro-3-hydroxy-3,13-dimethylhexadecahydro-1H-cyclopenta[a]phenanthren-17-yl)-2-(4-fluoro-1H-pyrazol-1-yl)ethan-1-one] | 740 nM | 390 nM |  |  |  | 
C[C@@]1(O)CC[C@H]2[C@H](CC[C@@H]3[C@@H]2CC(F)(F)[C@]2(C)[C@@H](C(=O)Cn4cc(C#N)cn4)CC[C@@H]32)C1 [Example 6, 1-(2-((3R,5R,8R,9R,10S,13S,14S,17S)-12,12-difluoro-3-hydroxy-3,13-dimethylhexadecahydro-1H-cyclopenta[a]phenanthren-17-yl)-2-oxoethyl)-1H-pyrazole-4-carbonitrile] | 470 nM | 120 nM |  |  |  | 
C[C@@]1(O)CC[C@H]2[C@H](CC[C@@H]3[C@@H]2CC(F)(F)[C@]2(C)[C@@H](C(=O)Cn4ccc(C#N)n4)CC[C@@H]32)C1 [Example 8, 1-(2-((3R,5R,8R,9R,10S,13S,14S,17S)-12,12-difluoro-3-hydroxy-3,13-dimethylhexadecahydro-1H-cyclopenta[a]phenanthren-17-yl)-2-oxoethyl)-1H-pyrazole-3-carbonitrile] | 630 nM | 250 nM | no interference of the locomotor functions | genotype-specific efficacy |  | 
CC(=O)[C@H]1CC[C@H]2[C@@H]3CC[C@@H]4C[C@](C)(O)CC[C@@H]4[C@H]3CC(F)(F)[C@]12C [Example 5, 1-((3R,5R,8R,9R,10S,13S,14S,17S)-12,12-difluoro-3-hydroxy-3,13-dimethylhexadecahydro-1H-cyclopenta[a]phenanthren-17-yl)ethan-1-one] | 390 nM | 190 nM |  |  |  | 
C=C1C[C@H]2[C@@H](CC[C@@H]3C[C@](C)(O)CC[C@@H]32)[C@@H]2CC[C@H](C#N)[C@@]12C [Example 1, (3R,5R,8R,9R,10S,13S,14S,17S)-3-hydroxy-3,13-dimethyl-12-methylenehexadecahydro-1H-cyclopenta[a]phenanthrene-17-carbonitrile] |  |  |  |  | 270 nM | 81 nM
